SMILES strings stand for the structures. Starred links: 1 amine or outer side, 2 acyl side, 3 side chain; linkers in the order of their positions; H or OH if unused. Positions of bridges follow the written chain, without caps; N, C: chain ends. Residues, ends and D or L forms follow the SMILES beside them. Groups on a side chain read outwards from the residue. *: point of attachment. X1 = O=C(CCCCCCCCCCCCCCCc1nnn[nH]1)NS(=O)(=O)CCCC(=O)*; C20 diacid = O=C(O)CCCCCCCCCCCCCCCCCCC(=O)*; C18 diacid = O=C(O)CCCCCCCCCCCCCCCCC(=O)*; γGlu = O=C(O)[C@H](CCC(=O)[*:2])N[*:1]

T1 sequence (O60896 24-148): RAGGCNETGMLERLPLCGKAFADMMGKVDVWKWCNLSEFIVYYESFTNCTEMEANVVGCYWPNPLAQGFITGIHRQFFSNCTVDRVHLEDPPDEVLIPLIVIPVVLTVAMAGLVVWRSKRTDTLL
T1 sequence (P30988 25-474): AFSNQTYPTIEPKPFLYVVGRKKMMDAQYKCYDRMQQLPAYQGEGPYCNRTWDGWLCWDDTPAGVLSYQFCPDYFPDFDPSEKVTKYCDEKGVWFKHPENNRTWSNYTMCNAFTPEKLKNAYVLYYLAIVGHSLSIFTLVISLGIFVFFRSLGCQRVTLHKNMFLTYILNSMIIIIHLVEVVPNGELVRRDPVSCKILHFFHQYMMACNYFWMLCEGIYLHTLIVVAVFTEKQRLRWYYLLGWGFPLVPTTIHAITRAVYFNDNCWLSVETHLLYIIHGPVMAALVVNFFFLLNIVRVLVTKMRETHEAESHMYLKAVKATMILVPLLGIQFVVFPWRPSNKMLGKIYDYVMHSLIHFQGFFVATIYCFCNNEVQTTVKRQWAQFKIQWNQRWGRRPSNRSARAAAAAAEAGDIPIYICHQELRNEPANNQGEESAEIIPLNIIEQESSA

One experiment addresses T1, Amylin 3(a) receptor (human calcitonin receptor (CTa) with RAMP-3) (Homo sapiens, UniProt O60896+P30988).
T1 construct: expressed in transfected cells; host or cells: BHK570 (baby hamster kidney) cells, stably transfected, with CRE-luciferase reporter
The experiment in a line: Amylin luciferase assay (CRE-luciferase reporter in BHK Amylin 3(a)//CRE-luc cells). The class given is cell-based.
Details: not given
In short, it runs like this: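 BHK570 cells stably expressing human calcitonin receptor (CTa), RAMP-3 and a CRE-luciferase reporter, about 20.000 cells/well, were exposed to standard or sample for 4 h at 37° C in phenol-red-free DMEM with 10% FBS and 10 mM Hepes pH 7,4. Luminescence was read after 30 min with LucLite at room temperature.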
(A reporter such as luciferase makes a cellular process visible.)
On to `CC[C@H](C)[C@H](NC(=O)[C@@H]1CCCN1C(=O)CNC(=O)[C@H](Cc1ccccc1)NC(=O)[C@H](CC(N)=O)NC(=O)[C@H](CC(N)=O)NC(=O)[C@H](CO)NC(=O)[C@H](CO)NC(=O)[C@H](Cc1c[nH]cn1)NC(=O)[C@@H](NC(=O)[C@H](CC(C)C)NC(=O)[C@H](Cc1ccccc1)NC(=O)[C@H](CC(N)=O)NC(=O)[C@H](C)NC(=O)[C@H](CC(C)C)NC(=O)[C@H](CCCNC(=N)N)NC(=O)[C@H](CCC(N)=O)NC(=O)[C@@H](NC(=O)[C@H](C)NC(=O)[C@@H]1CSSC[C@H](N)C(=O)N[C@@H](CCCCNC(=O)CC[C@H](NC(=O)CCCS(=O)(=O)NC(=O)CCCCCCCCCCCCCCCc2nnn[nH]2)C(=O)O)C(=O)N[C@@H]([C@@H](C)O)C(=O)N[C@@H](C)C(=O)N[C@@H]([C@@H](C)O)C(=O)N1)[C@@H](C)O)C(C)C)C(=O)N[C@@H](CC(C)C)C(=O)N1CCC[C@H]1C(=O)N1CCC[C@H]1C(=O)N[C@H](C(=O)N[C@@H](CC(N)=O)C(=O)N[C@H](C(=O)NCC(=O)N[C@@H](CO)C(=O)N[C@@H](CC(N)=O)C(=O)N[C@H](C(=O)N[C@@H](Cc1ccc(O)cc1)C(N)=O)[C@@H](C)O)C(C)C)[C@@H](C)O` [Example 42, N-epsilon3-{4-carboxy-4-[4-(16-1H-tetrazol-5-ylhexadecanoylsulfamoyl)butyrylamino]butyryl}-[Lys3]-pramlintide (2-37)] (H-CK([γGlu-X1])TATCATQRLANFLVHSSNNFGPILPPTNVGSNTY-NH2; disulfide 1-6; N-terminus and C-terminus assumed), for which the EC50 came to 0.04 nM.

The same experiment, now with this note: BHK570 cells with human calcitonin receptor (CTa), RAMP-3 and CRE-luciferase reporter; 4 hours incubation; read-out: Potency luciferase assay.
Regarding `CC[C@H](C)[C@H](NC(=O)[C@@H]1CCCN1C(=O)CNC(=O)[C@H](Cc1ccccc1)NC(=O)[C@H](CC(N)=O)NC(=O)[C@H](CC(N)=O)NC(=O)[C@H](CO)NC(=O)[C@H](CO)NC(=O)[C@H](Cc1c[nH]cn1)NC(=O)[C@@H](NC(=O)[C@H](CC(C)C)NC(=O)[C@H](Cc1ccccc1)NC(=O)[C@H](CC(N)=O)NC(=O)[C@H](C)NC(=O)[C@H](CC(C)C)NC(=O)[C@H](CCCNC(=N)N)NC(=O)[C@H](CCC(N)=O)NC(=O)[C@@H](NC(=O)[C@H](C)NC(=O)[C@@H]1CSSC[C@H](NC(=O)[C@H](CCC(=O)O)NC(=O)[C@H](CCCNC(=N)N)NC(=O)[C@H](CCC(=O)O)NC(=O)[C@H](CCC(=O)O)NC(=O)CC[C@H](NC(=O)CCCCCCCCCCCCCCCCCCC(=O)O)C(=O)O)C(=O)N[C@@H](CC(N)=O)C(=O)N[C@@H]([C@@H](C)O)C(=O)N[C@@H](C)C(=O)N[C@@H]([C@@H](C)O)C(=O)N1)[C@@H](C)O)C(C)C)C(=O)N[C@@H](CC(C)C)C(=O)N1CCC[C@H]1C(=O)N1CCC[C@H]1C(=O)N[C@H](C(=O)N[C@@H](CC(N)=O)C(=O)N[C@H](C(=O)NCC(=O)N[C@@H](CO)C(=O)N[C@@H](CC(N)=O)C(=O)N[C@H](C(=O)N[C@@H](Cc1ccc(O)cc1)C(N)=O)[C@@H](C)O)C(C)C)[C@@H](C)O` [Example 38, N-alpha-[(S)-4-carboxy-4-(19-carboxynonadecanoylamino)butyryl]-Glu-Glu-Arg-[Glu1]-pramlintide (1-37)] ({C20 diacid-γGlu}-EERECNTATCATQRLANFLVHSSNNFGPILPPTNVGSNTY-NH2; disulfide 5-10; C-terminus assumed), the EC50 is 0.3 nM.

In the case of `CC[C@H](C)[C@H](NC(=O)[C@@H]1CCCN1C(=O)CNC(=O)[C@H](Cc1ccccc1)NC(=O)[C@H](CC(N)=O)NC(=O)[C@H](CC(N)=O)NC(=O)[C@H](CO)NC(=O)[C@H](CO)NC(=O)[C@H](Cc1c[nH]cn1)NC(=O)[C@@H](NC(=O)[C@H](CC(C)C)NC(=O)[C@H](Cc1ccccc1)NC(=O)[C@H](CC(N)=O)NC(=O)[C@H](C)NC(=O)[C@H](CC(C)C)NC(=O)[C@H](CCCNC(=N)N)NC(=O)[C@H](CCC(N)=O)NC(=O)[C@@H](NC(=O)[C@H](C)NC(=O)[C@@H]1CSSC[C@H](NC(=O)[C@H](CCC(=O)O)NC(=O)[C@H](CCCNC(=N)N)NC(=O)[C@H](CCC(=O)O)NC(=O)[C@H](CCC(=O)O)NC(=O)CCCCCCCCCCCCCCCCC(=O)O)C(=O)N[C@@H](CC(N)=O)C(=O)N[C@@H]([C@@H](C)O)C(=O)N[C@@H](C)C(=O)N[C@@H]([C@@H](C)O)C(=O)N1)[C@@H](C)O)C(C)C)C(=O)N[C@@H](CC(C)C)C(=O)N1CCC[C@H]1C(=O)N1CCC[C@H]1C(=O)N[C@H](C(=O)N[C@@H](CC(N)=O)C(=O)N[C@H](C(=O)NCC(=O)N[C@@H](CO)C(=O)N[C@@H](CC(N)=O)C(=O)N[C@H](C(=O)N[C@@H](Cc1ccc(O)cc1)C(N)=O)[C@@H](C)O)C(C)C)[C@@H](C)O` [Example 41, N-alpha-(17-carboxyheptadecanoyl)-Glu-Glu-Arg-[Glu1]pramlintide (1-37)] ({C18 diacid}-EERECNTATCATQRLANFLVHSSNNFGPILPPTNVGSNTY-NH2; disulfide 5-10; C-terminus assumed), the EC50 is 0.06 nM.

In the case of `CC[C@H](C)[C@H](NC(=O)[C@@H]1CCCN1C(=O)CNC(=O)[C@H](Cc1ccccc1)NC(=O)[C@H](CC(N)=O)NC(=O)[C@H](CC(N)=O)NC(=O)[C@H](CO)NC(=O)[C@H](CO)NC(=O)[C@H](Cc1c[nH]cn1)NC(=O)[C@@H](NC(=O)[C@H](CC(C)C)NC(=O)[C@H](Cc1ccccc1)NC(=O)[C@H](CC(N)=O)NC(=O)[C@H](C)NC(=O)[C@H](CC(C)C)NC(=O)[C@H](CCCNC(=N)N)NC(=O)[C@H](CCC(N)=O)NC(=O)[C@@H](NC(=O)[C@H](C)NC(=O)[C@@H]1CSSC[C@H](NC(=O)CC[C@H](NC(=O)CCCCCCCCCCCCCCCCCCC(=O)O)C(=O)O)C(=O)N[C@@H](CC(N)=O)C(=O)N[C@@H]([C@@H](C)O)C(=O)N[C@@H](C)C(=O)N[C@@H]([C@@H](C)O)C(=O)N1)[C@@H](C)O)C(C)C)C(=O)N[C@@H](CC(C)C)C(=O)N1CCC[C@H]1C(=O)N1CCC[C@H]1C(=O)N[C@H](C(=O)N[C@@H](CC(N)=O)C(=O)N[C@H](C(=O)NCC(=O)N[C@@H](CO)C(=O)N[C@@H](CC(N)=O)C(=O)N[C@H](C(=O)N[C@@H](Cc1ccc(O)cc1)C(N)=O)[C@@H](C)O)C(C)C)[C@@H](C)O` [Example 43, N-alpha-[(S)-4-carboxy-4-(19-carboxynonadecanoylamino)butyryl]-pramlintide (2-37)] ({C20 diacid-γGlu}-CNTATCATQRLANFLVHSSNNFGPILPPTNVGSNTY-NH2; disulfide 1-6; C-terminus assumed), the EC50 came to 0.1 nM.

For the compound `CC[C@H](C)[C@H](NC(=O)[C@@H]1CCCN1C(=O)CNC(=O)[C@H](Cc1ccccc1)NC(=O)[C@H](CC(N)=O)NC(=O)[C@H](CC(N)=O)NC(=O)[C@H](CO)NC(=O)[C@H](CO)NC(=O)[C@H](Cc1c[nH]cn1)NC(=O)[C@@H](NC(=O)[C@H](CC(C)C)NC(=O)[C@H](Cc1ccccc1)NC(=O)[C@H](CC(N)=O)NC(=O)[C@H](C)NC(=O)[C@H](CC(C)C)NC(=O)[C@H](CCCNC(=N)N)NC(=O)[C@H](CCC(N)=O)NC(=O)[C@@H](NC(=O)[C@H](C)NC(=O)[C@@H]1CSSC[C@H](NC(=O)[C@H](CCCNC(=N)N)NC(=O)CC[C@H](NC(=O)CCCCCCCCCCCCCCCCCCC(=O)O)C(=O)O)C(=O)N[C@@H](CC(N)=O)C(=O)N[C@@H]([C@@H](C)O)C(=O)N[C@@H](C)C(=O)N[C@@H]([C@@H](C)O)C(=O)N1)[C@@H](C)O)C(C)C)C(=O)N[C@@H](CC(C)C)C(=O)N1CCC[C@H]1C(=O)N1CCC[C@H]1C(=O)N[C@H](C(=O)N[C@@H](CC(N)=O)C(=O)N[C@H](C(=O)NCC(=O)N[C@@H](CO)C(=O)N[C@@H](CC(N)=O)C(=O)N[C@H](C(=O)N[C@@H](Cc1ccc(O)cc1)C(N)=O)[C@@H](C)O)C(C)C)[C@@H](C)O` [Example 45, N-alpha-[(S)-4-carboxy-4-(19-carboxynonadecanoylamino)butyryl]-[Arg1]-pramlintide (1-37)] ({C20 diacid-γGlu}-RCNTATCATQRLANFLVHSSNNFGPILPPTNVGSNTY-NH2; disulfide 2-7; C-terminus assumed), the EC50 came to 0.04 nM.

As for `CC[C@H](C)[C@H](NC(=O)[C@@H]1CCCN1C(=O)CNC(=O)[C@H](Cc1ccccc1)NC(=O)[C@H](CC(N)=O)NC(=O)[C@H](CC(N)=O)NC(=O)[C@H](CO)NC(=O)[C@H](CO)NC(=O)[C@H](Cc1c[nH]cn1)NC(=O)[C@@H](NC(=O)[C@H](CC(C)C)NC(=O)[C@H](Cc1ccccc1)NC(=O)[C@H](CC(N)=O)NC(=O)[C@H](C)NC(=O)[C@H](CC(C)C)NC(=O)[C@H](CCCNC(=N)N)NC(=O)[C@H](CCC(N)=O)NC(=O)[C@@H](NC(=O)[C@H](C)NC(=O)[C@@H]1CSSC[C@H](NC(=O)[C@H](CCCNC(=N)N)NC(=O)[C@H](CCC(=O)O)NC(=O)CCCCCCCCCCCCCCCCCCC(=O)O)C(=O)N[C@@H](CC(N)=O)C(=O)N[C@@H]([C@@H](C)O)C(=O)N[C@@H](C)C(=O)N[C@@H]([C@@H](C)O)C(=O)N1)[C@@H](C)O)C(C)C)C(=O)N[C@@H](CC(C)C)C(=O)N1CCC[C@H]1C(=O)N1CCC[C@H]1C(=O)N[C@H](C(=O)N[C@@H](CC(N)=O)C(=O)N[C@H](C(=O)NCC(=O)N[C@@H](CO)C(=O)N[C@@H](CC(N)=O)C(=O)N[C@H](C(=O)N[C@@H](Cc1ccc(O)cc1)C(N)=O)[C@@H](C)O)C(C)C)[C@@H](C)O` [Example 46, N-alpha-(19-carboxynonadecanoyl)-Glu-[Arg1]-pramlintide (1-37)] ({C20 diacid}-ERCNTATCATQRLANFLVHSSNNFGPILPPTNVGSNTY-NH2; disulfide 3-8; C-terminus assumed), the EC50 was 0.1 nM.

Source of the values: patent US20100222269A1, “IMPROVED DERIVATIVES OF AMYLIN” (priority 2007, published 2010).
